Molecular target: T1, RORγ (Homo sapiens, UniProt P51449)
T1 construct: expressed in transfected cells; host or cells: 293FT cells (Invitrogen), expression vector pFN26A (Promega)
T1 sequence (P51449 269-508 limits assumed): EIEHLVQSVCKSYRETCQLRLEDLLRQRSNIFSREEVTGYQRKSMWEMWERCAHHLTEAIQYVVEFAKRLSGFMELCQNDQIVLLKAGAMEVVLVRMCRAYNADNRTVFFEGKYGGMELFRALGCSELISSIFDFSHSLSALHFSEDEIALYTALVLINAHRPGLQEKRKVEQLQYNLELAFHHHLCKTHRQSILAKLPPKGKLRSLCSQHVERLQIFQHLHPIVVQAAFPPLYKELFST
Assay: RORγ GAL4 reporter gene assay
Type: cell-based
Conditions: inhibition of RORγ activity, GAL4-RORγ-LBD luciferase reporter in 293FT cells, overnight incubation; read-out: mean pIC50 (converted)
Method: Example inhibitors 1-166 were tested for their ability to inhibit RORγ activity in a RORγ GAL4 reporter gene assay. The assay procedure and results are described below.
RORγ GAL4 Reporter Gene Assay Description
A GAL4 one-hybrid reporter system employing luciferase readout was established to determine inhibition of RORγ in 293FT cells. The RORγ ligand-binding domain (LBD) was fused to the yeast GAL4 DNA binding domain (DBD) and placed under the control of the human cytomegalovirus (CMV) immediate early promoter, using expression vector pFN26A (Promega) and standard recombinant DNA cloning methods. To serve as a control in the assay, a similar vector was generated in which the GAL4-DBD was fused to Herpes simplex virus protein 16 (VP16), a constitutive transcriptional activator.
To monitor the inhibitory effect of compounds on RORγ, a transcriptional reporter construct was used. The pGL4.35 vector (Promega) contains nine copies of the GAL4 Upstream Activator Sequence (UAS). This sequence drives the transcription of the luciferase reporter gene luc2P in response to binding of a fusion protein containing the GAL4 DNA binding domain, as for example expressed by the GAL4-RORγ-LBD and GAL4-VP16 expression vectors described above. To allow a GAL4 fusion protein to drive the expression of the luciferase reporter, the pGL4.35 expression vector and the appropriate GAL4 fusion protein expression vector were bulk transfected in the 293FT cells using standard transfection techniques.
The day after transfection, cells were plated into 96 well plates, test compound was added and the plates were incubated overnight. Subsequently, the firefly luciferase activity was quantified using luciferase detection reagent and luminescence readout.
Detailed Assay Description
293FT cells (Invitrogen) were transfected with a GAL4 fusion protein expression vector (as described above) and the transcriptional reporter construct (pGL4.35, Promega). 60 μL of TransIT-293 transfection reagent (Mirus Bio) was added drop wise to 1500 μl Opti-MEM I Reduced Serum Medium (Invitrogen) and incubated at room temperature (RT) for 5 to 20 minutes. 1500 μL of this reagent mixture was added to 5 μg of GAL4 fusion protein expression vector and 5 μg of the transcriptional reporter construct, and incubated at RT for 20 minutes.
To harvest 293FT cells from a T75 flask, first the culture medium was taken off the cells. Subsequently, the cells were washed with Phosphate Buffered Saline (PBS) (Lonza), after which the PBS was removed. To dissociate the cells, 1 ml of TrypLE Express (Invitrogen) was added to the flask, followed by incubation at RT until the cells visually started to detach. Cells were collected in 5 mL of assay medium (DMEM culture medium (Lonza), 10% dialyzed FBS (Invitrogen) and Pen/Strep (Lonza)) to achieve a single cell suspension. 10×10^6 cells were spun down and re-suspended in 10 mL of assay medium. Subsequently, the cell suspension was added to the transfection mix tube, and then transferred as a whole to a T75 flask (Greiner), followed by overnight (16-24 hours) incubation at 37° C. and 5% CO2.
For compound screening, the cells were harvested (as described above) and counted. 13×10^6 cells were spun down, the supernatant was aspirated and the cells were re-suspended in 17.3 mL of assay medium obtaining a cell suspension of 0.75×10^6 cells/mL. 80 μL of cell suspension (60,000 cells) was plated per well into a white, flat bottom, tissue culture treated, 96 well screening plates (Greiner).
Test compounds were diluted, starting from a 10 mM dimethylsulfoxide (DMSO) stock solution, to serial dilutions in DMSO at 500× the final test concentration. Subsequently, these solutions were diluted to 5× the final test concentration in two 10-fold-dilution steps in assay medium. The final DMSO concentration of the 5× test compound solution was 1%. […]

IC50 [nM] | SMILES
≤ 10 | CCOC(=O)CN(Cc1ccccc1)C(=O)c1ccc(NC(=O)Cc2ccc(S(=O)(=O)CC3CC3)cc2)cc1 [Example 32, ethyl 2-(N-benzyl-1-{4-[2-(4-cyclopropylmethanesulfonylphenyl)acetamido]phenyl}formamido)acetate]
≤ 1000 | CCOC(=O)c1cc2c(s1)CN(C(=O)c1ccc(NC(=O)Cc3ccc(S(=O)(=O)CC4CC4)cc3)cc1)CC2 [Example 33, ethyl 6-{4-[2-(4-cyclopropylmethanesulfonylphenyl)acetamido]benzoyl}-4H,5H,6H,7H-thieno[2,3-c]pyridine-2-carboxylate]
≤ 1000 | CN(C(=O)c1ccc(NC(=O)Cc2ccc(S(=O)(=O)CC3CC3)cc2)cc1)C1CCCCC1 [Example 34, N-cyclohexyl-4-[2-(4-cyclopropylmethanesulfonylphenyl)acetamido]-N-methylbenzamide]
≤ 100 | O=C(Cc1ccc(S(=O)(=O)CC2CC2)cc1)Nc1ccc(C(=O)N2CCCC2c2ccccc2)cc1 (centres unmarked) [Example 35, 2-(4-cyclopropylmethanesulfonylphenyl)-N-[4-(2-phenylpyrrolidine-1-carbonyl)phenyl]acetamide]
≤ 1000 | O=C(Cc1ccc(S(=O)(=O)CC2CC2)cc1)Nc1ccc(C(=O)N2CCCCC2)cc1 [Example 36, 2-(4-cyclopropylmethanesulfonylphenyl)-N-[4-(piperidine-1-carbonyl)phenyl]acetamide]
≤ 10 | CC(C)CN(C(=O)c1ccc(NC(=O)Cc2ccc(S(=O)(=O)CC3CC3)cc2)cc1)c1ccccc1 [Example 37, 4-[2-(4-cyclopropylmethanesulfonylphenyl)acetamido]-N-(2-methylpropyl)-N-phenylbenzamide]
≤ 1000 | CCOC(=O)c1csc(C2CCCN2C(=O)c2ccc(NC(=O)Cc3ccc(S(=O)(=O)CC4CC4)cc3)cc2)n1 (centres unmarked) [Example 38, ethyl 2-(1-{4-[2-(4-cyclopropylmethanesulfonylphenyl)acetamido]benzoyl}pyrrolidin-2-yl)-1,3-thiazole-4-carboxylate]
≤ 1000 | O=C(Cc1ccc(S(=O)(=O)CC2CC2)cc1)Nc1ccc(C(=O)N2CCCCC2CN2CCOCC2)cc1 (centres unmarked) [Example 39, 2-(4-cyclopropylmethanesulfonylphenyl)-N-{4-[2-(morpholin-4-ylmethyl)piperidine-1-carbonyl]phenyl}acetamide]
≤ 10 | O=C(Cc1ccc(S(=O)(=O)CC2CC2)cc1)Nc1ccc(C(=O)N2CCCc3ccccc32)cc1 [Example 40, 2-(4-cyclopropylmethanesulfonylphenyl)-N-[4-(1,2,3,4-tetrahydroquinoline-1-carbonyl)phenyl]acetamide]
≤ 1000 | O=C(Cc1ccc(S(=O)(=O)CC2CC2)cc1)Nc1ccc(C(=O)N2CCc3ccccc32)cc1 [Example 41, 2-(4-cyclopropylmethanesulfonylphenyl)-N-[4-(2,3-dihydro-1H-indole-1-carbonyl)phenyl]acetamide]
≤ 100 | CCN(Cc1ccccc1)C(=O)c1ccc(NC(=O)Cc2ccc(S(=O)(=O)CC3CC3)cc2)cc1 [Example 42, N-benzyl-4-[2-(4-cyclopropylmethanesulfonylphenyl)acetamido]-N-ethylbenzamide]
≤ 10 | CCN(C(=O)c1ccc(NC(=O)Cc2ccc(S(=O)(=O)NC3CC3)cc2)cc1)c1ccccc1 [Example 43, 4-{2-[4-(cyclopropylsulfamoyl)phenyl]acetamido}-N-ethyl-N-phenylbenzamide]
≤ 100 | CN(C(=O)c1ccc(NC(=O)Cc2ccc(S(=O)(=O)NC3CC3)cc2)cc1)c1ccccc1 [Example 44, 4-{2-[4-(cyclopropylsulfamoyl)phenyl]acetamido}-N-methyl-N-phenylbenzamide]
≤ 10 | CCN(C(=O)c1ccc(NC(=O)Cc2ccc(S(=O)(=O)NC3CC3)cc2)cc1)c1cccc(C)c1 [Example 46, 4-{2-[4-(cyclopropylsulfamoyl)phenyl]acetamido}-N-ethyl-N-(3-methylphenyl) benzamide]
≤ 100 | CCN(C(=O)c1ccc(NC(=O)Cc2ccc(S(=O)(=O)NC3CC3)cc2)cc1)c1cccc(C(=O)OC)c1 [Example 47, methyl 3-(N-ethyl-4-{2-[4-(cyclopropylsulfamoyl)phenyl]acetamido}benzamido) benzoate]
≤ 100 | O=C(Cc1ccc(S(=O)(=O)CC2CC2)cc1)Nc1ccc(C(=O)N2CCCC(c3ccccc3)C2)cc1 (centres unmarked) [Example 48, 2-(4-cyclopropylmethanesulfonylphenyl)-N-[4-(3-phenylpiperidine-1-carbonyl)phenyl]acetamide]
≤ 10 | O=C(Cc1ccc(S(=O)(=O)CC2CC2)cc1)Nc1ccc(C(=O)N2CCCCC2c2ccccc2)cc1 (centres unmarked) [Example 49, 2-(4-cyclopropylmethanesulfonylphenyl)-N-[4-(2-phenylpiperidine-1-carbonyl)phenyl]acetamide]
≤ 1000 | CCN(C(=O)c1ccc(NC(=O)Cc2ccc(S(=O)(=O)NC3CC3)cc2)cc1)c1cccnc1 [Example 50, 4-{2-[4-(cyclopropylsulfamoyl)phenyl]acetamido}-N-ethyl-N-(pyridin-3-yl)benzamide]
≤ 100 | CCN(C(=O)c1ccc(NC(=O)Cc2ccc(S(=O)(=O)CC3CC3)cc2)nc1)c1ccccc1 [Example 51, 6-[2-(4-cyclopropylmethanesulfonylphenyl)acetamido]-N-ethyl-N-phenylpyridine-3-carboxamide]
≤ 100 | CCN(C(=O)c1ccc(NC(=O)Cc2ccc(S(=O)(=O)CC3CC3)cc2)cc1)c1cccnc1 [Example 52, 4-[2-(4-cyclopropylmethanesulfonylphenyl)acetamido]-N-ethyl-N-(pyridin-3-yl) benzamide]
≤ 100 | CCN(C(=O)c1ccc(NC(=O)Cc2ccc(S(=O)(=O)CC3CC3)cc2)c(Cl)c1)c1ccccc1 [Example 53, 3-chloro-4-[2-(4-cyclopropylmethanesulfonylphenyl)acetamido]-N-ethyl-N-phenylbenzamide]
≤ 1000 | CCN(C(=O)c1ccc(NC(=O)Cc2ccc(S(=O)(=O)NC3CC3)cc2)nc1)c1ccccc1 [Example 54, 6-{2-[4-(cyclopropylsulfamoyl)phenyl]acetamido}-N-ethyl-N-phenylpyridine-3-carboxamide]
≤ 100 | O=C(Cc1ccc(S(=O)(=O)CC2CC2)cc1)Nc1ccc(C(=O)N2CCc3ccccc3C2)cc1 [Example 55, 2-(4-cyclopropylmethanesulfonylphenyl)-N-[4-(1,2,3,4-tetrahydroisoquinoline-2-carbonyl)phenyl]acetamide]
≤ 100 | CCN(Cc1cc(C)on1)C(=O)c1ccc(NC(=O)Cc2ccc(S(=O)(=O)CC3CC3)cc2)cc1 [Example 56, 4-[2-(4-cyclopropylmethanesulfonylphenyl)acetamido]-N-ethyl-N-[(5-methyl-1,2-oxazol-3-yl)methyl]benzamide]
≤ 100 | CN1CCN(C(=O)c2ccc(NC(=O)Cc3ccc(S(=O)(=O)CC4CC4)cc3)cc2)C(c2ccccc2)C1 (centres unmarked) [Example 57, 2-(4-cyclopropylmethanesulfonylphenyl)-N-[4-(4-methyl-2-phenylpiperazine-1-carbonyl)phenyl]acetamide]
≤ 100 | CCN(C(=O)c1ccc(NC(=O)Cc2ccc(S(=O)(=O)CC3CC3)cc2)cc1OC)c1ccccc1 [Example 58, 4-[2-(4-cyclopropylmethanesulfonylphenyl)acetamido]-N-ethyl-2-methoxy-N-phenylbenzamide]

Source: patent US10315996B2, “ROR gamma (RORγ) modulators” (LEAD PHARMA HOLDING B.V., priority 2015, dated 2019)
